The values that follow are results of earlier work, collected in US8017143B2, “Coating agent for drug releasing stent, preparation method thereof and drug releasing stent coated therewith” (Taewoong Medical Co., Ltd, priority 2007, dated 2011).

The conditions of the data set: esophageal, prostate, rectal, bladder cancer, hepatic, central nervous system and brain tumors.

Molecules are shown by their SMILES.

Regarding `CC(=O)O[C@H]1C(=O)[C@@]2(C)[C@H]([C@H](OC(=O)c3ccccc3)[C@]3(O)C[C@H](OC(=O)[C@H](O)[C@@H](NC(=O)c4ccccc4)c4ccccc4)C(C)=C1C3(C)C)[C@]1(OC(C)=O)CO[C@@H]1C[C@@H]2O` [taxol], the therapeutic effects entry was “excellent therapeutic effects”.
